Test results taken from US12522614B2, “Topical phosphoinositide 3-kinase inhibitors” (VENTHERA, INC., priority 2019, dated 2026).

Assays:
PI3Ka (p110a/p85a) = molecular target: T1, PI3Ka (p110a/p85a) (Homo sapiens, UniProt P42336); test: Lipid kinase inhibitory activity, ADP-Glo; type: biochemical; details: α
T1 construct: purchased Reaction Biology Corporation (RBC)

[1] = molecular target: T2, PI3K (p110a(H1047R)/p85a) (Homo sapiens, UniProt P42336, H1047R); test: Lipid kinase inhibitory activity, ADP-Glo; type: biochemical; details: α H1047R
T2 construct: purchased Reaction Biology Corporation (RBC)
T2 sequence (P42336 whole entry H1047R): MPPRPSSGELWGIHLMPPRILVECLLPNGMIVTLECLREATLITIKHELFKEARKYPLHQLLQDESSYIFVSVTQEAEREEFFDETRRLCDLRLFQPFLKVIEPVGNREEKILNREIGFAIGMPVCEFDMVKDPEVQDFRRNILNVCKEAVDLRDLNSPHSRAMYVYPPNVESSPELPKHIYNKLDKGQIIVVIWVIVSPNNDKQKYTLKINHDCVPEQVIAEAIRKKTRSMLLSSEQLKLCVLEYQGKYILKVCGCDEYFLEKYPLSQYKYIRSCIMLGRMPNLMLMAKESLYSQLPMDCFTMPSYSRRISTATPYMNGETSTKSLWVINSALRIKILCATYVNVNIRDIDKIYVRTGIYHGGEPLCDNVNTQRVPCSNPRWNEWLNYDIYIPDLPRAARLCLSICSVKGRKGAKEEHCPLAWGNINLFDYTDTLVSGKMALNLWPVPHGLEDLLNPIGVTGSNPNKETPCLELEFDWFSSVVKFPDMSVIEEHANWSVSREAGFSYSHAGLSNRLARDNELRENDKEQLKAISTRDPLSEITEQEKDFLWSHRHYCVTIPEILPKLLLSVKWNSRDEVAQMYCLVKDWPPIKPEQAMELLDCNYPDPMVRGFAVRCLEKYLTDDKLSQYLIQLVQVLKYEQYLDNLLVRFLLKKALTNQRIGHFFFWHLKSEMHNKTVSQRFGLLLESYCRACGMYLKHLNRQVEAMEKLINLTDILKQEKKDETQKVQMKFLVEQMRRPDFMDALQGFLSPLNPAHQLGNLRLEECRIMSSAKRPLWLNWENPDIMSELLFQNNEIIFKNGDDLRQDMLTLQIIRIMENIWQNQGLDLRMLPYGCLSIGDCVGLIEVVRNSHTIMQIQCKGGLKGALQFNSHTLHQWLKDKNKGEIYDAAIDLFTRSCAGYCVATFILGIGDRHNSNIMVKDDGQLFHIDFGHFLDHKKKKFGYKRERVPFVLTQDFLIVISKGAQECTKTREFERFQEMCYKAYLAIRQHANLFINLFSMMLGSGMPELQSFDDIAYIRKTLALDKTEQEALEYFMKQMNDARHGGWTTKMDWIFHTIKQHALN
T2 sequence (P27986 whole entry partner): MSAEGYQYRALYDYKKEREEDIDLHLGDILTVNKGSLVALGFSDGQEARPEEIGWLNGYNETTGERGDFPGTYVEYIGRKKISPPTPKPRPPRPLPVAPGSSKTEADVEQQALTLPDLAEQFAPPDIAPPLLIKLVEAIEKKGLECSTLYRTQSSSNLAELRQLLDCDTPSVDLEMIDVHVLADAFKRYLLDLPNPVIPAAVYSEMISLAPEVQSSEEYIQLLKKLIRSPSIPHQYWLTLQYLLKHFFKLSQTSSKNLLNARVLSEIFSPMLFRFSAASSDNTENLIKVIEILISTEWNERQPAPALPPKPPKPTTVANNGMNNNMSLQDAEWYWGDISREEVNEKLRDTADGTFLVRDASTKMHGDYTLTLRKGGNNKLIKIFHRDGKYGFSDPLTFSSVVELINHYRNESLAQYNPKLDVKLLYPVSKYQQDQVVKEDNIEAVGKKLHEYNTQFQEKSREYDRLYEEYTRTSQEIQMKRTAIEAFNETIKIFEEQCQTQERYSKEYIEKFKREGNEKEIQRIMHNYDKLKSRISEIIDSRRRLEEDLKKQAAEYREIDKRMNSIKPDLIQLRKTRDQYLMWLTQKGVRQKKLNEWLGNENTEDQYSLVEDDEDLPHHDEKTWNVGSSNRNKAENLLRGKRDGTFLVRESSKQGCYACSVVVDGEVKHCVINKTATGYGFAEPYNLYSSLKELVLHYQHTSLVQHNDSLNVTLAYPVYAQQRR

PI3Kg (p110g) = molecular target: T3, PI3Kg (p110g) (Homo sapiens, UniProt P48736); test: Lipid kinase inhibitory activity, ADP-Glo; type: biochemical; details: γ
T3 construct: purchased Reaction Biology Corporation (RBC)
T3 sequence (P48736 whole entry): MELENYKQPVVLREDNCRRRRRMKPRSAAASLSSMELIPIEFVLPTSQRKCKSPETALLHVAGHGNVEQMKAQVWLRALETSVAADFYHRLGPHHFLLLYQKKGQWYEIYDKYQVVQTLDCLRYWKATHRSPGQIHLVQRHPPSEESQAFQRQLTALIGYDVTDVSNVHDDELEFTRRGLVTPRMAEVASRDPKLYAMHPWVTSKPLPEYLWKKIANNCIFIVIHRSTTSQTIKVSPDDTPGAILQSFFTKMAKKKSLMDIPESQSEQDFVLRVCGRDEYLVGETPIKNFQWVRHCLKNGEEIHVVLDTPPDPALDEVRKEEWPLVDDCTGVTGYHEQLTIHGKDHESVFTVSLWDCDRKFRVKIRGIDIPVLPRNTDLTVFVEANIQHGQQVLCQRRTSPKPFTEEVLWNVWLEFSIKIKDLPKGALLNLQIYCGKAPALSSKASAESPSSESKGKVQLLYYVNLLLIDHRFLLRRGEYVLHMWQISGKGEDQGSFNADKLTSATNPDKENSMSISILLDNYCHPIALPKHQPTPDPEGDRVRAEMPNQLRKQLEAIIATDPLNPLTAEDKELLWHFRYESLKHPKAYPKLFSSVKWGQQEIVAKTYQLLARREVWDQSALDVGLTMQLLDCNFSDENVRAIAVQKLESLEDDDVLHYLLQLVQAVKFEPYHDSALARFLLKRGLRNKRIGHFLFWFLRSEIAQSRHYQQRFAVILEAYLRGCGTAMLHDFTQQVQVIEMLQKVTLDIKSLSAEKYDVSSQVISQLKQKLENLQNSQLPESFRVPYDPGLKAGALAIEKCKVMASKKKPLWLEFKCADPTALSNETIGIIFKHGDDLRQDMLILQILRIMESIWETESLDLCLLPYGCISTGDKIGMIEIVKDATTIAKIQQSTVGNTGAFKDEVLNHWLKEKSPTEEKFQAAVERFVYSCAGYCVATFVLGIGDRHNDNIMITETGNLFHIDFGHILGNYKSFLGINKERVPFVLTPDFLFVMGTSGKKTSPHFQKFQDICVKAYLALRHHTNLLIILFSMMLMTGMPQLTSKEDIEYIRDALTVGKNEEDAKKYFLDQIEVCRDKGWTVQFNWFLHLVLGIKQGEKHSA

PI3Kd (p110d/p85a) = molecular target: T4, PI3Kd (p110d/p85a) (Homo sapiens, UniProt O00329); test: Lipid kinase inhibitory activity, ADP-Glo; type: biochemical; details: δ
T4 construct: purchased Reaction Biology Corporation (RBC)
T4 sequence (O00329 whole entry): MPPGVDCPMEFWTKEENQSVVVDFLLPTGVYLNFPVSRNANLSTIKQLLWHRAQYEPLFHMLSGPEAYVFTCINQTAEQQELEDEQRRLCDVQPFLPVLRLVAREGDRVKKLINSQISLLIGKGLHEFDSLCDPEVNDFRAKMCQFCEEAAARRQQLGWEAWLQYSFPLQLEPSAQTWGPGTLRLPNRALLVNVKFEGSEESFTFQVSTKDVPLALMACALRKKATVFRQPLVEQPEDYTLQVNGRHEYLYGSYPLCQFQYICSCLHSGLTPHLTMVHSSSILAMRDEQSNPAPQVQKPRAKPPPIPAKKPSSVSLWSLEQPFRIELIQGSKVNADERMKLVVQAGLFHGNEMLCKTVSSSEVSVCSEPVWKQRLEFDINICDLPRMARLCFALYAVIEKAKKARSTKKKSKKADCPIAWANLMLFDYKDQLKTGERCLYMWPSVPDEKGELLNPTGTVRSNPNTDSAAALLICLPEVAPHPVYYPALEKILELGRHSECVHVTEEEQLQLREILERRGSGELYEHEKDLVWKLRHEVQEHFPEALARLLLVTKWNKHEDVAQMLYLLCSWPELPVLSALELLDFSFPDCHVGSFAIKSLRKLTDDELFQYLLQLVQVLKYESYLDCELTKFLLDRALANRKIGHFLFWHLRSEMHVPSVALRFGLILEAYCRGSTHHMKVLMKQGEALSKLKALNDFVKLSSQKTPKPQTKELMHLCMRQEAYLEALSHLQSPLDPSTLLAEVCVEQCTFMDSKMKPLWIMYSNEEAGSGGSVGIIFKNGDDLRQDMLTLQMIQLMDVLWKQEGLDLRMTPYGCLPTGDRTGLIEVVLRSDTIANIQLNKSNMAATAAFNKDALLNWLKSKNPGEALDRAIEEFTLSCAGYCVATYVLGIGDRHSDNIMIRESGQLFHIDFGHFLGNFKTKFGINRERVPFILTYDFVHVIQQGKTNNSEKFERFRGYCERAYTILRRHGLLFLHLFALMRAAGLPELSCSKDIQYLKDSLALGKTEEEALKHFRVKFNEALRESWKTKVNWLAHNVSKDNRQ
T4 sequence (P27986 whole entry partner): as the sequence (P27986 whole entry partner) above

PI3K (p110a(E545K)/p85a) = molecular target: T5, PI3K (p110a(E545K)/p85a) (Homo sapiens, UniProt P42336, E545K); test: Lipid kinase inhibitory activity, ADP-Glo; type: biochemical; details: α E545K
T5 construct: purchased Reaction Biology Corporation (RBC)
T5 sequence (P42336 whole entry E545K): as the sequence (P42336 whole entry H1047R) above, with E545K, R1047H counted along it
T5 sequence (P27986 whole entry partner): as the sequence (P27986 whole entry partner) above

PI3K (p110a(E542K)/p85a) = molecular target: T6, PI3K (p110a(E542K)/p85a) (Homo sapiens, UniProt P42336, E542K); test: Lipid kinase inhibitory activity, ADP-Glo; type: biochemical; details: α E542K
T6 construct: purchased Reaction Biology Corporation (RBC)
T6 sequence (P42336 whole entry E542K): as the sequence (P42336 whole entry H1047R) above, with E542K, R1047H counted along it
T6 sequence (P27986 whole entry partner): as the sequence (P27986 whole entry partner) above

[2] = Stability study of Compound 1.002 as API (HPLC assay); type: physicochemical
Description: The stability of three lots of Compound 1.002 as Active Pharmaceutical Ingredient (API) was studied for a period of 12 months.

[3] = Accelerated stability study of topical gel formulations at 80° C.; type: physicochemical; details: gel formulation (Table 2 excipients), 80° C.
Description: Topical gel formulations were prepared using excipients as shown in Table 2 according to Example 8, in which Compounds 1.002, 1.012, and 1.006 were used as the active ingredient, respectively. These gel formulations were subjected to stability study at 80° C. for 10 days. Stability under the condition of at 80° C. for 10 days is expected to be approximately equivalent to the stability for three (3) years at room temperature. A relative purity of the tested compound after being exposed for 5 days and 10 days at 80° C. was determined by HPLC, as compared to its initial purity (at day 0).
The values shown in the table are percent hydrolysis of the respective compounds to the parent compound MTPP.
Topical gel formulations of Compound 1.002 were prepared using excipients as shown in Table 2 according to Example 8, in which the content of oleic acid varied at 1%, 2%, 5%, and 10%, respectively. These gel formulations were subjected to stability study at 80° C. for 10 days, which is expected to be approximately equivalent to the stability for three (3) years at room temperature. A purity of the tested compound on day 0, 5, 7, and 10 at 80° C. was determined by HPLC. The detected impurity of the tested compound appears to be the hydrolysis product, as MTPP. Table 17 represents stability data of Compound 1.002 in topical formulations having oleic acid at various contents.
Gel formulations of Example 17 were subjected to stability study at 80° C. for 10 days. Stability under the condition of at 80° C. for 10 days is expected to be approximately equivalent to the stability for three (3) years at room temperature. A relative purity of Compound 1.002 after being exposed for 5 days and 10 days at 80° C. was determined by HPLC, as compared to its initial purity (at day 0).

[4] = Human skin permeation from liquid reservoir transdermal patch over 7 days; type: in vitro ADME; details: liquid reservoir patch with Table 11 gel
Description: Liquid reservoir transdermal patches of FIG. 6 were prepared and used for the study of delivery of Compound 1.002. The transdermal patches were used to deliver Compound 1.002 in vitro through human skin for 7 days from a single patch application. The following gel formulation having composition as shown in Table 11 was prepared according to Example 8 and incorporated into the reservoir patch system.
Patches using the gel formulation having compositions of Table 11 were prepared in accordance with the process shown in FIG. 7. The patch was 1.8 cm^2 in size containing 0.3 mL of the gel formulation. The backing layer of the patch was Scotchpak® 9723, which is a laminate of polyester and polyethylene commonly used in transdermal patches. The controlling membrane was SOLUPOR® 10P05A, which is a highly porous (up to 90% porous) Ultra High Molecular Weight Polyethylene membrane with controlled pore size. The pressure sensitive adhesive in contact with the human skin was […], which is a non-crosslinked acrylate copolymer with no functional groups.
Compound 1.002 was confirmed to metabolize to MTPP by estarases as it permeates through the human skin.

T1 sequence (P42336 whole entry): as the sequence (P42336 whole entry H1047R) above, with R1047H counted along it
T1 sequence (P27986 whole entry partner): as the sequence (P27986 whole entry partner) above

CC(=O)Oc1cccc(-c2nc(N3CCOCC3)c3sccc3n2)c1 [Compound 1.002, 3-(4-Morpholinothieno[3,2-d]pyrimidin-2-yl)phenyl Acetate]
IC50 (PI3Ka (p110a/p85a)): 35 nM
IC50 [1]: 59 nM
IC50 (PI3Kg (p110g)): 544 nM
IC50 (PI3Kd (p110d/p85a)): 83 nM
IC50 (PI3K (p110a(E545K)/p85a)): 49 nM
IC50 (PI3K (p110a(E542K)/p85a)): 42 nM
Compound 1.002 Purity by a HPLC Assay Method ([2]; Lot-1, 25° C./60% RH, 0 months): 99.5%
Compound 1.002 Purity by a HPLC Assay Method ([2]; Lot-1, 25° C./60% RH, 3 months): 99.4%
Compound 1.002 Purity by a HPLC Assay Method ([2]; Lot-1, 25° C./60% RH, 6 months): 99.6%
Compound 1.002 Purity by a HPLC Assay Method ([2]; Lot-1, 25° C./60% RH, 9 months): 99.8%
Compound 1.002 Purity by a HPLC Assay Method ([2]; Lot-1, 25° C./60% RH, 12 months): 99.9%
Compound 1.002 Purity by a HPLC Assay Method ([2]; Lot-1, 40° C./75% RH, 0 months): 99.5%
Compound 1.002 Purity by a HPLC Assay Method ([2]; Lot-1, 40° C./75% RH, 3 months): 99.2%
Compound 1.002 Purity by a HPLC Assay Method ([2]; Lot-1, 40° C./75% RH, 6 months): 99.5%
Compound 1.002 Purity by a HPLC Assay Method ([2]; Lot-2, 40° C./75% RH, 0 months): 99.4%
Compound 1.002 Purity by a HPLC Assay Method ([2]; Lot-2, 40° C./75% RH, 1 month): 100.0%
Compound 1.002 Purity by a HPLC Assay Method ([2]; Lot-2, 40° C./75% RH, 2 months): 99.3%
Compound 1.002 Purity by a HPLC Assay Method ([2]; Lot-2, 40° C./75% RH, 3 months): 97.9%
Compound 1.002 Purity by a HPLC Assay Method ([2]; Lot-2, 40° C./75% RH, 6 months): 100.0%
Compound 1.002 Purity by a HPLC Assay Method ([2]; Lot-3, 40° C./75% RH, 0 months): 100.0%
Compound 1.002 Purity by a HPLC Assay Method ([2]; Lot-3, 40° C./75% RH, 1 month): 100.0%
Compound 1.002 Purity by a HPLC Assay Method ([2]; Lot-3, 40° C./75% RH, 2 months): 100.0%
Compound 1.002 Purity by a HPLC Assay Method ([2]; Lot-3, 40° C./75% RH, 3 months): 98.9%
Compound 1.002 Purity by a HPLC Assay Method ([2]; Lot-3, 40° C./75% RH, 6 months): 100.0%
Relative Purity ([3]; Day 0): 100%
Relative Purity ([3]; Day 5): 96%
Relative Purity ([3]; Day 10): 94%
Compound 1.002 metabolized to MTPP after permeating through the human skin [4]: approximately 85%
